Columns and labels:
Format in all cases: cell-based
[1] = test system: Pichia membranaefaciens (DSM 70369); test: Growth inhibition in sucrose solution pH 5, OD after 21 days; conditions: for Antifungal activity: pH 5, 21 days at 25° C.; for concentration at which active as single ingredient: sucrose solution pH 5, 21 days, tested at 25, 50, 75 ppm
Text: (§1) The term “effective” when used to describe the capacity of a composition to inhibit growth of a yeast or mould strain is defined as the ability of such composition to inhibit growth of the strain in a growth medium consisting of a 105 g/L sucrose solution with an initial inoculum of 10^2-10^3 cfu/mL of such yeast or mould strain, so that the average optical density of the growth medium, as measured at 380 nm for yeast strains and at 500 nm for mould strains, is maintained below 0.2 after 21 days of culture at 25° C. under aerobic conditions. The growth medium of which the optical density is measured consists of the growth medium as it is at the end of the 21 days growth period.
(§2) For the purposes of the present invention, growth inhibition activity of a given compound against one of the above mentioned strains is measured as follows:
(§3) A 105 g/L solution of sucrose in water is prepared. Preferably, the sucrose solution is at pH 3±0.2 or at pH 5±0.2, in which case the sucrose solution is more preferably autoclaved at 121° C. for 15 minutes and the pH is re-checked to ensure it remains within the required range.
(§4) Test samples are prepared in a microtiter plate comprising 100 μL of one of the sucrose solutions prepared above, together with an initial inoculum of the fungal strain of which growth is intended to be inhibited, so as to achieve a microbial level comprised between 10^2 and 10^3 cfu/mL.
(§5) The composition of which the antifungal activity is intended to be evaluated is then added to the microtiter plate. Dilutions of the tested composition in each test sample are prepared to afford the desired final concentration. The microtiter plates are then stored in a standard 25° C. incubator under aerobic conditions.
(§6) The optical density (OD) of each sample is measured just after addition of the composition (control) and after 21 days of incubation. The OD is measured at 380 nm for yeast strains and at 500 nm for mould strains.
(§7) All tests are done in triplicate to ensure statistical relevance of the results obtained.
(§8) Growth inhibition of a particular strain by an ingredient at a particular concentration is given if the OD measured after 21 days of culture in these conditions is below 0.2.
(§9) A 105 g/L solution of sucrose in water at pH 5±0.2 was prepared. The sucrose solution was autoclaved at 121° C. for 15 minutes and the pH was re-checked to ensure it remained within the range.
(§10) Test samples were then prepared in microtiter plates. An amount of 100 μL of sucrose solution prepared above was mixed with an inoculum of 20 μL of one fungal strain, so as to achieve a microbial level comprised between 10^2 and 10^3 cfu/mL.
(§11) Composition A was then added to the microtiter plate. Dilutions were prepared in the microtiter plate for each mixture of sucrose solution and inoculum to afford final concentrations of 75 ppm and 125 ppm of Composition A. One well for each mixture of sucrose solution and inoculum was kept free of Composition A, to serve as a control.
(§12) The microtiter plates were then stored in a standard 25° C. incubator under aerobic conditions.
(§13) The optical density (OD) of each sample was measured after 21 days of incubation using a Bio-Tek Synergy™ HT Multi-Mode Microplate Reader (from Labtech International, UK). The wavelength was set to 380 nm for yeast strains and to 500 nm for mould strains.
(§14) All tests were done in triplicate to ensure statistical relevance of the results obtained.
(§15) 2-Methylhexanoic acid, geranic acid and sorbic acid were separately tested for their antifungal properties using the method described in Example 1 for evaluation of Composition A, except that dilutions were prepared in the microtiter plate for each mixture of sucrose solution and inoculum to afford final concentrations of 25 ppm, 50 ppm and 75 ppm of the tested ingredient. […]

[2] = test system: Pichia anomala (DSM 70783); test: as above; conditions: for Antifungal activity: pH 5, 21 days at 25° C.; for concentration at which active as single ingredient: sucrose solution pH 5, 21 days, tested at 25, 50, 75 ppm
Text: as §1, §2, §3, §4, §5, §6, §7, §8, §9, §10, §11, §12, §13, §14, §15

each of the tested fungi = test: Growth inhibition, summary over all tested strains; conditions: even at 75 ppm; strains of Tables 3-4 or 9-10
Method: as §9, §10, §11, §12, §13, §14
2-Methylhexanoic acid, geranic acid and sorbic acid were separately tested for their antifungal properties using the method described in Example 1 for evaluation of Composition A, except that dilutions were prepared in the microtiter plate for each mixture of sucrose solution and inoculum to afford final concentrations of 25 ppm, 50 ppm and 75 ppm of the tested ingredient.
Composition B was then added to the microtiter plate.

[3] = test system: Zygosaccharomyces bailii (DSM 70492); test: Growth inhibition in sucrose solution pH 5, OD after 21 days; conditions: for Antifungal activity: pH 5, 21 days at 25° C., OD 380 nm
Text: The term “effective” when used to describe the capacity of a composition to inhibit growth of a yeast or mould strain is defined as the ability of such composition to inhibit growth of the strain in a growth medium consisting of a 105 g/L sucrose solution with an initial inoculum of 10^2-10^3 cfu/mL of such yeast or mould strain, so that the average optical density of the growth medium, as measured at 380 nm for yeast strains and at 500 nm for mould strains, is maintained below 0.2 after 21 days of culture at 25° C. under aerobic conditions. The growth medium of which the optical density is measured consists of the growth medium as it is at the end of the 21 days growth period. It therefore consists of the growth medium (sucrose solution at 105 g/L), together with the organisms which were able to grow during the 21 days culture period and the composition of the invention. For the purposes of the present invention, growth inhibition activity of a given compound against one of the above mentioned strains is measured as follows: A 105 g/L solution of sucrose in water is prepared. Preferably, the sucrose solution is at pH 3±0.2 or at pH 5±0.2, in which case the sucrose solution is more preferably autoclaved at 121° C. for 15 minutes and the pH is re-checked to ensure it remains within the required range. Test samples are prepared in a microtiter plate comprising 100 μL of one of the sucrose solutions prepared above, together with an initial inoculum of the fungal strain of which growth is intended to be inhibited, so as to achieve a microbial level comprised between 10^2 and 10^3 cfu/mL. The composition of which the antifungal activity is intended to be evaluated is then added to the microtiter plate. […] The microtiter plates are then stored in a standard 25° C. incubator under aerobic conditions. The optical density (OD) of each sample is measured just after addition of the composition (control) and after 21 days of incubation. The OD is measured at 380 nm for yeast strains and at 500 nm for mould strains. All tests are done in triplicate to ensure statistical relevance of the results obtained. Growth inhibition of a particular strain by an ingredient at a particular concentration is given if the OD measured after 21 days of culture in these conditions is below 0.2. A 105 g/L solution of sucrose in water at pH 5±0.2 was prepared. The sucrose solution was autoclaved at 121° C. for 15 minutes and the pH was re-checked to ensure it remained within the range. Test samples were then prepared in microtiter plates. […] Composition A was then added to the microtiter plate. […] One well for each mixture of sucrose solution and inoculum was kept free of Composition A, to serve as a control. The microtiter plates were then stored in a standard 25° C. incubator under aerobic conditions. The optical density (OD) of each sample was measured after 21 days of incubation using a Bio-Tek Synergy™ HT Multi-Mode Microplate Reader (from Labtech International, UK). The wavelength was set to 380 nm for yeast strains and to 500 nm for mould strains. All tests were done in triplicate to ensure statistical relevance of the results obtained.

[4] = 75 ppm, OD 380 nm (Examples 3-4)

Row | SMILES | Antifungal activity ([1]; 25 ppm, OD 380 nm (Example 4)) | Antifungal activity ([1]; 50 ppm, OD 380 nm (Example 4)) | Antifungal activity [1, 4] | concentration at which active as single ingredient [1] | Antifungal activity ([2]; 25 ppm, OD 380 nm (Example 4)) | Antifungal activity ([2]; 50 ppm, OD 380 nm (Example 4)) | Antifungal activity [2, 4] | concentration at which active as single ingredient [2] | antifungal activity as single ingredient against tested strains (each of the tested fungi) | Antifungal activity ([3]; 25 ppm) | Antifungal activity ([3]; 50 ppm) | Antifungal activity ([3]; 75 ppm) | Antifungal activity ([1]; 25 ppm, OD 380 nm) | Antifungal activity ([1]; 50 ppm, OD 380 nm) | Antifungal activity ([1]; 75 ppm, OD 380 nm) | Antifungal activity ([2]; 25 ppm, OD 380 nm) | Antifungal activity ([2]; 50 ppm, OD 380 nm) | Antifungal activity ([2]; 75 ppm, OD 380 nm) | concentration at which active as single ingredient ([3]; sucrose solution pH 5, 21 days, tested at 25, 50, 75 ppm)
1 | O=C(O)c1ccccc1 [benzoic acid] | I (Letter I (for Inactive) is used when the measured OD was of at least 0.2) | I (Letter I (for Inactive) is used when the measured OD was of at least 0.2) | A (Letter A (for Active) is indicated when the measured OD was below 0.2) | 75 ppm | I (Letter I (for Inactive) is used when the measured OD was of at least 0.2) | A (Letter A (for Active) is indicated when the measured OD was below 0.2) | A (Letter A (for Active) is indicated when the measured OD was below 0.2) | 50 ppm |  |  |  |  |  |  |  |  |  |  | 
2 | CC(C)=CCC/C(C)=C/C(=O)O [Geranic acid] |  |  |  |  |  |  |  |  | inactive | I (Letter I (for Inactive) is used when the measured OD was of at least 0.2) | I (Letter I (for Inactive) is used when the measured OD was of at least 0.2) | I (Letter I (for Inactive) is used when the measured OD was of at least 0.2) | I (Letter I (for Inactive) is used when the measured OD was of at least 0.2) | I (Letter I (for Inactive) is used when the measured OD was of at least 0.2) | I (Letter I (for Inactive) is used when the measured OD was of at least 0.2) | I (Letter I (for Inactive) is used when the measured OD was of at least 0.2) | I (Letter I (for Inactive) is used when the measured OD was of at least 0.2) | I (Letter I (for Inactive) is used when the measured OD was of at least 0.2) | 
3 | C/C=C/C=C/C(=O)O [Sorbic acid] |  |  |  | 75 ppm |  |  |  | 50 ppm |  | I (Letter I (for Inactive) is used when the measured OD was of at least 0.2) | I (Letter I (for Inactive) is used when the measured OD was of at least 0.2) | A (Letter A (for Active) is indicated when the measured OD was below 0.2) | I (Letter I (for Inactive) is used when the measured OD was of at least 0.2) | I (Letter I (for Inactive) is used when the measured OD was of at least 0.2) | A (Letter A (for Active) is indicated when the measured OD was below 0.2) | I (Letter I (for Inactive) is used when the measured OD was of at least 0.2) | A (Letter A (for Active) is indicated when the measured OD was below 0.2) | A (Letter A (for Active) is indicated when the measured OD was below 0.2) | 75 ppm
4 | CCC(=O)O [Propanoic acid] | I (Letter I (for Inactive) is used when the measured OD was of at least 0.2) | I (Letter I (for Inactive) is used when the measured OD was of at least 0.2) | I (Letter I (for Inactive) is used when the measured OD was of at least 0.2) |  | I (Letter I (for Inactive) is used when the measured OD was of at least 0.2) | I (Letter I (for Inactive) is used when the measured OD was of at least 0.2) | I (Letter I (for Inactive) is used when the measured OD was of at least 0.2) |  | inactive |  |  |  |  |  |  |  |  |  | 
5 | CCCCC(C)C(=O)O (centres unmarked) [2-Methylhexanoic acid] |  |  |  |  |  |  |  |  | inactive | I (Letter I (for Inactive) is used when the measured OD was of at least 0.2) | I (Letter I (for Inactive) is used when the measured OD was of at least 0.2) | I (Letter I (for Inactive) is used when the measured OD was of at least 0.2) | I (Letter I (for Inactive) is used when the measured OD was of at least 0.2) | I (Letter I (for Inactive) is used when the measured OD was of at least 0.2) | I (Letter I (for Inactive) is used when the measured OD was of at least 0.2) | I (Letter I (for Inactive) is used when the measured OD was of at least 0.2) | I (Letter I (for Inactive) is used when the measured OD was of at least 0.2) | I (Letter I (for Inactive) is used when the measured OD was of at least 0.2) | 

Source: patent US20140335251A1, “ANTIFUNGAL FLAVORING COMPOSITIONS” (FIRMENICH SA, priority 2011, published 2014)
